Test results published in patent US9266881B2, “Triazolopyridinone PDE10 inhibitors” (Merck Sharp & Dohme Corp., priority 2011, dated 2016).
pKi: −log10 of the molar value. Like-named read-outs stand apart in the source and are kept apart here.

Target: human PDE10A2 (Homo sapiens (Human), UniProt Q9Y233)
Test: PDE10 fluorescence polarization (IMAP FP) inhibition assay
Format: biochemical
Procedure: The activity of the compounds in accordance with the present invention as PDE10 inhibitors may be readily determined without undue experimentation using a fluorescence polarization (FP) methodology that is well known in the art (Huang, W., et al., J. Biomol Screen, 2002, 7: 215).
In a typical experiment the PDE10 inhibitory activity of the compounds of the present invention was determined in accordance with the following experimental method. PDE10A2 was amplified from human fetal brain cDNA (Clontech, Mountain View, Calif.) using a forward primer corresponding to nucleotides 56-77 of human PDE10A2 (Accession No. AF127480, Genbank Identifier 4894716), containing a Kozak consensus sequence, and a reverse primer corresponding to nucleotides 2406-2413 of human PDE10A2 (Accession No. AF127480, Genbank Identifier 4894716). Amplification with Easy-A polymerase (Stratagene, La Jolla, Calif.) was 95° C. for 2 minutes followed by thirty three cycles of 95° C. for 40 seconds, 55° C. for 30 seconds, and 72° C. for 2 minutes 48 seconds. Final extension was 72° C. for 7 minutes. The PCR product was TA cloned into pcDNA3.2-TOPO (Invitrogen, Carlsbad, Calif.) according to standard protocol. AD293 cells with 70-80% confluency were transiently transfected with human PDE10A2/pcDNA3.2-TOPO using Lipofectamine 2000 according to manufacturer specifications (Invitrogen, Carlsbad, Calif.). Cells were harvested 48 hours post-transfection and lysed by sonication (setting 3, 10×5 sec pulses) in a buffer containing 20 mM HEPES, 1 mM EDTA and protease inhibitor cocktail (Roche). Lysate was collected by centrifugation at 75,000×g for 20 minutes. Supernatant containing the cytoplasmic fraction was used for evaluation of PDE10A2 activity. The fluorescence polarization assay for cyclic nucleotide phosphodiesterases was performed using an IMAP® FP kit supplied by Molecular Devices, Sunnyvale, Calif. (product #R8139). IMAP® technology has been applied previously to phosphodiesterase assays (Huang, W., et al., J. Biomol Screen, 2002, 7: 215). Assays were performed at room temperature in 384-well microtiter plates with an incubation volume of 20.2 μl. Solutions of test compounds were prepared in DMSO and serially diluted with DMSO to yield 8 μL of each of 10 solutions differing by 3-fold in concentration, at 32 serial dilutions per plate. 100% inhibition is determined using a known PDE10 inhibitor, which can be any compound that is present at 5,000 times its Ki value in the assay described as follows, such as papaverine (see Siuciak, et al. Neuropharmacology (2006) 51:386-396; Becker, et al. Behav Brain Res (2008) 186(2):155-60; Threlfell, et al., J Pharmacol Exp Ther (2009) 328(3):785-795), 2-{4-[pyridin-4-yl-1-(2,2,2-trifluoroethyl)-1H-pyrazol-3-yl]phenoxymethyl}quinoline succinic acid or 2-[4-(1-methyl-4-pyridin-4-yl-1H-pyrazol-3-yl)-phenoxymethyl]quinoline succinic acid (see Schmidt, et al. J Pharmacol Exp Ther (2008) 325:681-690; Threlfell, et al., J Pharmacol Exp Ther (2009) 328(3): 785-795). 0% of inhibition is determined by using DMSO (1% final concentrations).
A Labcyte Echo 555 (Labcyte, Sunnyvale, Calif.) is used to dispense 200 nL from each well of the titration plate to the 384 well assay plate. A solution of enzyme (1/1600 dilution from aliquots; sufficient to produce 20% substrate conversion) and a separate solution of FAM-labeled cAMP PDE from Molecular Devices (product #R7506), at a final concentration of 50 nM are made in the assay buffer (10 mM Tris HCl, pH 7.2, 10 mM MgCl2, 0.05% NaN3 0.01% Tween-20, and 1 mM DTT). The enzyme and the substrate are then added to the assay plates in two consecutive additions of 10 μL, and then shaken to mix. The reaction is allowed to proceed at room temperature for 30 minutes. A binding solution is then made from the kit components, comprised of 80% Solution A, 20% Solution B and binding reagent at a volume of 1/600 the total binding solution. […]

[1] = human PDE10A2 lysate, IMAP FP, 50 nM FAM-labeled cAMP, room temperature, read-out: PDE10A Ki
[2] = human PDE10 enzyme, aforementioned assays, read-out: Ki for inhibiting the human PDE10 enzyme (range given)

human PDE10A2, sequence (Q9Y233 267-1055): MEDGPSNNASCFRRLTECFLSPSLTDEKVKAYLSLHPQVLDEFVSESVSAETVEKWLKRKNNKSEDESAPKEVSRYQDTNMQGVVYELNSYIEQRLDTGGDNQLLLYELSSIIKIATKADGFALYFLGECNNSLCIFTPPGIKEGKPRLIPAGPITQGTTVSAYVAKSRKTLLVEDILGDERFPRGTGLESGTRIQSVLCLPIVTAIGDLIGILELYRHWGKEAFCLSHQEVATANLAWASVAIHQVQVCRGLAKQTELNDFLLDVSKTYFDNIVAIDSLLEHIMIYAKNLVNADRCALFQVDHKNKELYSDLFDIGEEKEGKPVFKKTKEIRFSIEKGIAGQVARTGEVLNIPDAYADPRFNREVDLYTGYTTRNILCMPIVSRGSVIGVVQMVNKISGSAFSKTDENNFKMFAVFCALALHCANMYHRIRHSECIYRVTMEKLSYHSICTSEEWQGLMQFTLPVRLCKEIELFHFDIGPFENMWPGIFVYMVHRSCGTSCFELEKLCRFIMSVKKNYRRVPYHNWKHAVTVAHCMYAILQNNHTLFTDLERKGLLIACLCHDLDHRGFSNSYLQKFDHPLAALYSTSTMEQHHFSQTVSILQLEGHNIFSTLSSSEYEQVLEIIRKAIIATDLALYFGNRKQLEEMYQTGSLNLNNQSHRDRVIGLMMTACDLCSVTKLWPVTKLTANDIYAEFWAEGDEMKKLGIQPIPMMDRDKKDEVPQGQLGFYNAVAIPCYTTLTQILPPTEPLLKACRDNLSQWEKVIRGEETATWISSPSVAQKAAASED

pKi [1] | pKi [2] | SMILES
7.43 |  | O=c1n(CCc2ccc3ccccc3n2)nc2c(Br)cccn12 [Compound 1-6]
7.23 |  | O=c1n(CCc2ccc3ccccc3n2)nc2cccc(Br)n12 [Compound 2-4, 5-bromo-2-(2-quinolin-2-ylethyl)[1,2,4]triazolo[4,3-a]pyridin-3(2H)-one]
6.81 |  | O=c1n(CCc2ccc3ccccc3n2)nc2ccc(Br)cn12 [Compound 3-4, 6-bromo-2-(2-quinolin-2-ylethyl)[1,2,4]triazolo[4,3-a]pyridin-3(2H)-one]
7.66 |  | O=c1n(CCc2ccc3ccccc3n2)nc2c(-c3ncco3)cccn12 [Compound 4-1, 8-(1,3-oxazol-2-yl)-2-(2-quinolin-2-ylethyl)[1,2,4]triazolo[4,3-a]pyridin-3(2H)-one]
8.36 | 8.00 to 10.00 | O=c1n(CCc2ccc3ccccc3n2)nc2cccc(-c3ccncc3)n12 [Compound 5-1, 5-pyridin-4-yl-2-(2-quinolin-2-ylethyl)[1,2,4]triazolo[4,3-a]pyridin-3(2H)-one]
8.60 | 8.00 to 10.00 | O=c1n(CCc2ccc3ccccc3n2)nc2cccc(N3CCOCC3)n12 [Compound 6-1, 5-morpholin-4-yl-2-(2-quinolin-2-ylethyl)[1,2,4]triazolo[4,3-a]pyridin-3(2H)-one]
7.96 |  | COc1ccc(C(C)(O)c2cccc3nn(CCc4ccc5ccccc5n4)c(=O)n23)cc1 (stereo not shown) [Compound 7-2, 5-[1-hydroxy-1-(4-methoxyphenyl)ethyl]-2-(2 - quinolin-2-ylethyl)[1,2,4]triazolo[4,3-a]pyridin-3(2H)-one]
7.01 |  | O=C(Nc1cccnc1)c1cccc2nn(CCc3ccc4ccccc4n3)c(=O)n12 [Compound 8-2, 3-oxo-N-pyridin-3-yl-2-(2-quinolin-2-ylethyl)-2,3-dihydro[1,2,4]triazolo[4,3-a]pyridine-5-carboxamide]
6.29 |  | O=c1n(CCc2ccc3ccccc3n2)nc2ccc(-c3cccnc3)cn12 [Compound 9-1, 6-pyridin-3-yl-2-(2-quinolin-2-ylethyl)[1,2,4]triazolo[4,3-a]pyridin-3(2H)-one]
6.99 |  | O=c1n(CCc2ccc3ncccc3n2)nc2c(-c3ccncc3)cccn12 [Compound 10-4, 2-[2-(1,5-naphthyridin-2-yl)ethyl]-8-pyridin-4-yl[1,2,4]triazolo[4,3-a]pyridin-3(2H)-one]
8.14 | 8.00 to 10.00 | Cn1cc(-c2ccccc2)nc1CCn1nc2cccc(Br)n2c1=O [Compound 11-4, 5-bromo-2-[2-(1-methyl-4-phenyl-1H-imidazol-2-yl)ethyl][1,2,4]triazolo[4,3-a]pyridin-3(2H)-one]
9.39 | 8.00 to 10.00 | Cn1cc(-c2ccccc2)nc1CCn1nc2cccc(N3CCOCC3)n2c1=O [Compound 12-1, 2-[2-(1-methyl-4-phenyl-1H-imidazol-2-yl)ethyl]-5-morpholin-4-yl[1,2,4]triazolo[4,3-a]pyridin-3(2H)-one]
6.26 |  | O=c1n(C[C@@H]2C[C@H]2c2ccccn2)nc2cccc(N3CCOCC3)n12 [Compound 13-6, 5-morpholino-2-(((1R,2R)-2-(pyridin-2-yl)cyclopropyl)methyl)-[1,2,4]triazolo[4,3-a]pyridin-3(2H)-one]
8.05 | 8.00 to 10.00 | O=c1n(CCc2ccc3ccccc3n2)nc2cccc(-c3cccnc3)n12 [Compound A-1, 5-pyridin-3-yl-2-(2-quinolin-2-ylethyl)[1,2,4]triazolo[4,3-a]pyridin-3(2H)-one]
7.13 |  | Cc1cccn2c(=O)n(CCc3ccc4ccccc4n3)nc12 [Compound A-2, 8-methyl-2-(2-quinolin-2-ylethyl)[1,2,4]triazolo[4,3-a]pyridin-3(2H)-one]
7.77 |  | Cc1ccc(-c2cccc3nn(CCc4ccc5ccccc5n4)c(=O)n23)cc1 [Compound A-3, 5-(4-methylphenyl)-2-(2-quinolin-2-ylethyl)[1,2,4]triazolo[4,3-a]pyridin-3(2H)-one]
7.64 |  | O=c1n(CCc2ccc3ccccc3n2)nc2cccc(-c3cncs3)n12 [Compound A-4, 2-(2-quinolin-2-ylethyl)-5-(1,3-thiazol-5-yl)[1,2,4]triazolo[4,3-a]pyridin-3(2H)-one]
7.70 |  | O=c1n(CCc2ccc3ccccc3n2)nc2cccc(-c3ccccc3)n12 [Compound A-5, 5-phenyl-2-(2-quinolin-2-ylethyl)[1,2,4]triazolo[4,3-a]pyridin-3(2H)-one]
7.72 |  | O=c1n(CCc2ccc3ccccc3n2)nc2cccc(N3CCCCC3)n12 [Compound A-6, 5-piperidin-1-yl-2-(2-quinolin-2-ylethyl)[1,2,4]triazolo[4,3-a]pyridin-3(2H)-one]
7.92 |  | O=c1n(CCc2ccc3ccccc3n2)nc2cccc(NCc3cccnc3)n12 [Compound A-7, 5-[(pyridin-3-ylmethyl)amino]-2-(2-quinolin-2-ylethyl)[1,2,4]triazolo[4,3-a]pyridin-3(2H)-one]
7.14 |  | CC(C)(O)c1cccc2nn(CCc3ccc4ccccc4n3)c(=O)n12 [Compound A-8, 5-(1-hydroxy-1-methylethyl)-2-(2-quinolin-2-ylethyl)[1,2,4]triazolo[4,3-a]pyridin-3(2H)-one]
8.70 | 8.00 to 10.00 | Cn1cc(-c2ccccc2)nc1CCn1nc2cccc(-c3ccncc3)n2c1=O [Compound B-1, 2-[2-(1-methyl-4-phenyl-1H-imidazol-2-yl)ethyl]-5-pyridin-4-yl[1,2,4]triazolo[4,3-a]pyridin-3(2H)-one]
